Assay results published in publication PMC6934184, “Selective DNA-PKcs inhibition extends the therapeutic index of localized radiotherapy and chemotherapy” (The Journal of Clinical Investigation, 2019).

Target: T1, CHUK (IKK alpha) (Homo sapiens, UniProt O15111)
T1 construct: purchased Thermo Fisher Scientific (Life Technologies) SelectScreen
Assay: SelectScreen Adapta
Format: biochemical
Experimental: The in vitro kinase selectivity of NU5455 was determined using the SelectScreen Broad Assay Panel (Thermo Fisher Scientific) involving activity and binding assays (Supplemental Table 1). […] Class IA PI3Ks were measured using the p85α subunit.
Kinase [ATP] % Assay Kinase [ATP] % Assay Kinase [ATP] % Assay Kinase [ATP] % Assay
DNA-PK Km app 98.3 Z LATS2 n/a 4.7 L KIT D820E n/a 1.3 L GSK3B (GSK3 beta) Km app -2.5 Z
PIK3C3 (hVPS34) Km app 85.9 A PRKCZ (PKC zeta) Km app 4.7 Z GRK1 n/a 1.3 L BMPR2 n/a -2.5 L
PIK3C2B (PI3K-C2 beta) 10 28.9 A FGFR1 Km app 4.7 Z BRSK2 n/a 1.2 L CDC42 BPB (MRCKB) Km app -2.5 Z
SNF1LK2 Km app 26.6 Z MINK1 Km app 4.6 Z NUAK1 (ARK5) Km app 1.2 A AMPK (A2/B2/G2) n/a -2.6 L
HCK Km app 18.0 Z CSF1R (FMS) Km app 4.3 Z CDK9/cyclin K n/a 1.0 L PRKG1 Km app -2.7 Z
NEK2 Km app 17.8 Z CSNK1G3 (CK1 gamma 3) Km app 4.2 Z NUAK2 n/a 1.0 L KIT T670E n/a -2.8 L
ALK Km app 17.3 Z STK32C (YANK3) n/a 4.2 L CDK2/cyclin O n/a 0.9 L ERBB4 (HER4) Km app -2.8 Z
FGFR3 K650M n/a 16.5 L STK22D (TSSK1) Km app 4.2 Z CAMKK2 (CaMKK beta) n/a 0.9 L PLK4 n/a -2.8 L
SIK3 n/a 16.1 L TAOK3 (JIK) n/a 4.2 L FGFR3 Km app 0.9 Z GRK7 Km app -3.0 Z
LYN A Km app 15.2 Z RPS6KA4 (MSK2) Km app 4.2 Z ULK2 n/a 0.9 L MAPKAPK2 Km app -3.1 Z
BMPR1B (ALK6) n/a 14.5 L PTK2B (FAK2) Km app 4.2 Z KIT D816V n/a 0.9 L FGFR4 Km app -3.1 Z
INSRR (IRR) Km app 14.1 Z CLK2 Km app 4.1 Z CAMK1 (CaMK1) 10 0.8 A CASK n/a -3.1 L
PLK2 Km app 14.1 Z STK24 (MST3) Km app 4.1 Z PTK6 (Brk) Km app 0.7 Z GRK5 Km app -3.2 Z
PRKACA (PKA) Km app 14.0 Z CAMK1D (CaMKI delta) Km app 4.1 Z CAMK2B (CaMKII beta) Km app 0.7 Z EGFR (ErbB1) T790M Km app -3.3 Z
EIF2AK2 (PKR) n/a 13.3 L INSR Km app 4.1 Z ACVR1 (ALK2) n/a 0.7 L PAK4 Km app -3.3 Z
PRKX Km app 12.5 Z IRAK1 Km app 4.0 A ABL1 H396P n/a 0.6 L DAPK3 (ZIPK) Km app -3.4 Z
FGR Km app 12.1 Z SRC N1 Km app 3.9 Z MERTK (cMER) A708S n/a 0.6 L RET M918T n/a -3.5 L
CLK1 Km app 11.7 Z SRPK2 Km app 3.9 Z MAPKAPK5 (PRAK) Km app 0.6 Z PRKCQ (PKC theta) Km app -3.7 Z
MARK3 Km app 11.4 Z RPS6KA6 (RSK4) Km app 3.8 Z AKT1 (PKB alpha) Km app 0.5 Z CAMKK1 (CAMKKA) n/a -3.8 L
PDGFRB (PDGFR beta) Km app 11.0 Z GRK6 Km app 3.7 Z NTRK3 (TRKC) Km app 0.4 Z FLT3 D835Y Km app -3.9 Z
PRKCN (PKD3) Km app 10.7 Z PKN1 (PRK1) Km app 3.6 Z ZAP70 Km app 0.3 Z ROCK2 Km app -4.1 Z
STK16 (PKL12) n/a 10.5 L MAP3K8 (COT) 100 3.5 Z CSNK1A1 (CK1 alpha 1) Km app 0.3 Z CHUK (IKK alpha) Km app -4.2 A
FES (FPS) Km app 10.4 Z FLT4 (VEGFR3) Km app 3.5 Z MYLK (MLCK) n/a 0.2 L AXL Km app -4.2 Z
ABL1 Km app 10.4 Z GRK4 Km app 3.5 Z MKNK2 (MNK2) n/a 0.2 L PIM2 Km app -4.3 Z
MUSK Km app 10.3 Z FRK (PTK5) Km app 3.4 Z AMPK (A1/B1/G3) n/a 0.2 L PAK1 Km app -4.4 Z
MAPK1 (ERK2) Km app 10.1 Z FYN A n/a 3.3 L MAP3K2 (MEKK2) n/a 0.1 L BMPR1A (ALK3) n/a -4.4 L
BRAF 100 9.9 Z CDK1/cyclin A2 n/a 3.3 L CDK8/cyclin C n/a 0.1 L STK4 (MST1) Km app -4.4 Z
IGF1R Km app 9.7 Z KIT V559D T670I n/a 3.1 L MARK2 Km app 0.1 Z PRKCH (PKC eta) Km app -4.6 Z
MAPK14 (p38 alpha) Km app 9.7 Z SPHK2 10 3.1 A ICK n/a 0.0 L SGKL (SGK3) Km app -4.6 Z
LCK Km app 9.6 Z FGFR3 G697C n/a 3.1 L FGFR2 Km app 0.0 Z PI4KB (PI4K beta) Km app -4.7 A
MAPK11 (p38 beta) Km app 9.5 Z RIPK2 n/a 3.1 L AKT2 (PKB beta) Km app 0.0 Z PRKCE (PKC epsilon) Km app -4.9 Z
SRC Km app 9.5 Z PAK6 Km app 3.0 Z EPHB2 Km app -0.1 Z PHKG1 Km app -5.0 Z
CHEK1 (CHK1) Km app 9.3 Z LYN B Km app 3.0 Z TGFBR2 n/a -0.1 L PDGFRA D842V Km app -5.0 Z
CAMK2D (CaMKII delta) Km app 9.3 Z DAPK2 n/a 2.9 L TEK (Tie2) Km app -0.1 Z PRKG2 (PKG2) Km app -5.1 Z
PLK1 Km app 9.2 Z EPHA4 Km app 2.9 Z AURKA (Aurora A) Km app -0.1 Z TYRO3 (RSE) Km app -5.1 Z
RET Y791F Km app 9.2 Z PIK3CG (p110 gamma) Km app 2.9 A KIT D816H n/a -0.2 L TAOK2 (TAO1) Km app -5.1 Z
FLT3 Km app 9.1 Z HIPK1 (Myak) Km app 2.8 Z KIT N822K n/a -0.2 L EPHB4 Km app -5.3 Z
MAPK10 (JNK3) 100 9.0 Z ADRBK2 (GRK3) Km app 2.8 Z PRKACG (PRKAC gamma) n/a -0.2 L AURKC (Aurora C) Km app -5.4 Z
CSNK2A2 (CK2 alpha 2) Km app 8.7 Z STK17B (DRAK2) n/a 2.7 L TEK (TIE2) Y1108F n/a -0.3 L JAK1 Km app -5.7 Z […]

T1 sequence (O15111 whole entry): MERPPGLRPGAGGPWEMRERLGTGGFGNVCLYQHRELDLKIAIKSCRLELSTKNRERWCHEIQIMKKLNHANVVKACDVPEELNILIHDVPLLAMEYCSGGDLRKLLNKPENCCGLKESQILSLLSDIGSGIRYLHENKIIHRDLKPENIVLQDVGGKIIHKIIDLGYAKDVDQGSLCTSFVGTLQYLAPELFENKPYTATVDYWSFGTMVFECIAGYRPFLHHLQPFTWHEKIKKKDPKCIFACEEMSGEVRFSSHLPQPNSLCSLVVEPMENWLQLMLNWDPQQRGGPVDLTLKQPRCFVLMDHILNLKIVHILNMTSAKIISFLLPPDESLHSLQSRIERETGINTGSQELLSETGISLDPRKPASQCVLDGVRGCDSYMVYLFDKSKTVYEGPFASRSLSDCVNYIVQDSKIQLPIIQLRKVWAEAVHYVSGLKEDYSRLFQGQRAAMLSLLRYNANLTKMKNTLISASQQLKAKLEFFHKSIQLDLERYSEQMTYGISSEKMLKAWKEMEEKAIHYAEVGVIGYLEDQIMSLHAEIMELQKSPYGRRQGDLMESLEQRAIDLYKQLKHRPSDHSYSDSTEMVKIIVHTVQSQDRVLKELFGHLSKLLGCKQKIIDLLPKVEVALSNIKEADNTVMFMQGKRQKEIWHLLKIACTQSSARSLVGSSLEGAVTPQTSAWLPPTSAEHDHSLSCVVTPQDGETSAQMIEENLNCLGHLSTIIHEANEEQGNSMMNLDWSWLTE

SMILES: CN(C(=O)CN1CCOCC1)c1ccc2sc3c(-c4cccc5c(=O)cc(N6CC7CCC(C6)O7)oc45)cccc3c2c1 [NU5455]
- inhibition at 1 µM: -4.2%
